In ChEMBL document CHEMBL3243954 (J Med Chem, 1979):

Experiments:
Brain [1] = assay: Drug uptake albino mouse brain at 5 mg equivalent of oxazepam/kg, iv after 60 mins measured per gm of tissue by thin-layer chromatography; type: ADME, organism-based; conditions: in vivo, 1 h
Brain [2] = assay: Drug uptake albino mouse brain at 5 mg equivalent of oxazepam/kg, iv after 6 mins measured per gm of tissue by thin-layer chromatography; type: ADME, organism-based; conditions: in vivo, 0.1 h
Brain [3] = assay: Drug uptake albino mouse brain at 5 mg equivalent of oxazepam/kg, iv after 30 mins measured per gm of tissue by thin-layer chromatography; type: ADME, organism-based; conditions: in vivo, 0.5 h
[4] = Retardation factor, Rm of the compound by thin-layer chromatography; type: physicochemical
Brain [5] = assay: Drug uptake albino mouse brain at 5 mg equivalent of oxazepam/kg, iv after 1 min measured per gm of tissue by thin-layer chromatography; type: ADME, organism-based; conditions: in vivo
Brain [6] = assay: Drug uptake albino mouse brain at 5 mg equivalent of oxazepam/kg, iv after 5 mins measured per gm of tissue by thin-layer chromatography; type: ADME, organism-based; conditions: in vivo
Brain [7] = assay: Drug uptake albino mouse brain at 5 mg equivalent of oxazepam/kg, iv after 10 mins measured per gm of tissue by thin-layer chromatography; type: ADME, organism-based; conditions: in vivo
Brain [8] = assay: Drug uptake albino mouse brain at 5 mg equivalent of oxazepam/kg, iv after 20 mins measured per gm of tissue by thin-layer chromatography; type: ADME, organism-based; conditions: in vivo
Brain [9] = assay: Drug uptake albino mouse brain at 5 mg equivalent of oxazepam/kg, iv after 40 mins measured per gm of tissue by thin-layer chromatography; type: ADME, organism-based; conditions: in vivo
Brain [10] = assay: Drug uptake albino mouse brain at 5 mg equivalent of oxazepam/kg, iv after 120 mins measured per gm of tissue by thin-layer chromatography; type: ADME, organism-based; conditions: in vivo, 2 h
Brain [11] = assay: Drug uptake albino mouse brain at 5 mg equivalent of oxazepam/kg, iv after 240 mins measured per gm of tissue by thin-layer chromatography; type: ADME, organism-based; conditions: in vivo, 4 h
Brain [12] = assay: Drug uptake albino mouse brain at 5 mg equivalent of oxazepam/kg, iv after 2 mins measured per gm of tissue by thin-layer chromatography; type: ADME, organism-based; conditions: in vivo
Brain [13] = assay: Drug uptake albino mouse brain at 15 mg equivalent of oxazepam/kg, iv after 1 mins measured per gm of tissue by thin-layer chromatography; type: ADME, organism-based; conditions: in vivo
Brain [14] = assay: Drug uptake albino mouse brain at 15 mg equivalent of oxazepam/kg, iv after 3 mins measured per gm of tissue by thin-layer chromatography; type: ADME, organism-based; conditions: in vivo, 0.05 h
Brain [15] = assay: Drug uptake albino mouse brain at 15 mg equivalent of oxazepam/kg, iv after 12 mins measured per gm of tissue by thin-layer chromatography; type: ADME, organism-based; conditions: in vivo, 0.2 h
Brain [16] = assay: Drug uptake albino mouse brain at 15 mg equivalent of oxazepam/kg, iv after 20 mins measured per gm of tissue by thin-layer chromatography; type: ADME, organism-based; conditions: in vivo
Brain [17] = assay: Drug uptake albino mouse brain at 15 mg equivalent of oxazepam/kg, iv after 40 mins measured per gm of tissue by thin-layer chromatography; type: ADME, organism-based; conditions: in vivo
Brain [18] = assay: Drug uptake albino mouse brain at 15 mg equivalent of oxazepam/kg, iv after 90 mins measured per gm of tissue by thin-layer chromatography; type: ADME, organism-based; conditions: in vivo, 1.5 h
Brain [19] = assay: Drug uptake albino mouse brain at 15 mg equivalent of oxazepam/kg, iv after 180 mins measured per gm of tissue by thin-layer chromatography; type: ADME, organism-based; conditions: in vivo, 3 h

| Structure (SMILES) | Drug uptake (Brain [1]) | Drug uptake (Brain [2]) | Drug uptake (Brain [3]) | Rm [4] | Drug uptake (Brain [5]) | Drug uptake (Brain [6]) | Drug uptake (Brain [7]) | Drug uptake (Brain [8]) | Drug uptake (Brain [9]) | Drug uptake (Brain [10]) | Drug uptake (Brain [11]) | Drug uptake (Brain [12]) | Drug uptake (Brain [13]) | Drug uptake (Brain [14]) | Drug uptake (Brain [15]) | Drug uptake (Brain [16]) | Drug uptake (Brain [17]) | Drug uptake (Brain [18]) | Drug uptake (Brain [19]) |
| --- | --- | --- | --- | --- | --- | --- | --- | --- | --- | --- | --- | --- | --- | --- | --- | --- | --- | --- | --- |
| COC(=O)CCC(=O)OC1N=C(c2ccccc2)c2cc(Cl)ccc2N[14C]1=O (configuration not stated) | 9.8 nmol | 3.8 nmol | 10.8 nmol | -0.03 | 0.8 nmol | – | – | – | – | – | – | – | – | – | – | – | – | – | – |
| CC(C)C(=O)OC1N=C(c2ccccc2)c2cc(Cl)ccc2N[14C]1=O (configuration not stated) | 10.8 nmol | – | – | 0.12 | – | 5.7 nmol | 8.9 nmol | 9.3 nmol | 11.6 nmol | 5.9 nmol | 3.8 nmol | 3.1 nmol | – | – | – | – | – | – | – |
| CCCC(=O)OC1N=C(c2ccccc2)c2cc(Cl)ccc2N[14C]1=O (configuration not stated) | – | – | – | 0.17 | – | – | – | – | – | – | – | – | 16.6 nmol | 17.3 nmol | 19 nmol | 25.9 nmol | 32 nmol | 38.2 nmol | 22.6 nmol |
